Test systems include K562; T47D; SR; UACC-257; NCI-H522; MDA-MB-435; MDA-MB-231; SNB-19; HCT-15; PC-3; NCI-H23; DU-145; NCI-H226; ACHN; Malme-3M; Hs-578T; HCT-116; COLO 205; BT-549; U-251.
Experiment in all cases: growth of human tumour cells (NCI), 48 h

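Cultured in 96-well plates, cells were exposed to test compound for 48 hours across five concentrations. Here, GI50 denotes the concentration required for 50% inhibition of growth.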 The source made the active and inactive calls. Cut-off read from the data, not from the text of the source: active = GI50 up to about 1.1 µM and inactive = higher.

As for `COc1cc(/C=C/c2nc(N)nnc2C)cc(OC)c1OC`, the GI50 in the assay with K562 is 15.5 µM (inactive); in the assay with T47D, 12.1 µM (inactive); with SR, 7.52 µM (inactive); in the assay on UACC-257, 37.7 µM (inactive); in the assay with NCI-H522 it was 2.43 µM (inactive); in the assay with MDA-MB-435, 9.33 µM (inactive). Moreover, the GI50 was > 84.1 µM (inactive) in the assay with MDA-MB-231; 23.4 µM (inactive) with SNB-19; 4.04 µM in the assay with HCT-15; 11.4 µM (inactive) in the assay on PC-3; 13.9 µM (inactive) in the assay on NCI-H23; > 57 µM (inactive) in the assay with DU-145. In addition, the GI50 with NCI-H226 was 10.1 µM (inactive); with ACHN, 15.5 µM (inactive); in the assay with Malme-3M it was 13.6 µM (inactive); in the assay with Hs-578T, 11.9 µM (inactive); in the assay on HCT-116, 9.89 µM (inactive); in the assay with COLO 205 it was 10.3 µM (inactive). Further, the GI50 with BT-549 was 20.5 µM (inactive); in the assay with U-251, 18.4 µM (inactive).

`CC(C)(C)OC(=O)N1C(C2=COc3ccccc3O2)=COc2ccccc21`: the GI50 with K562 was 21.5 µM (inactive); with T47D, 11.5 µM (inactive); in the assay on SR it was 21.1 µM (inactive); in the assay with UACC-257, 23.9 µM (inactive); with NCI-H522 it was 16 µM (inactive); in the assay with MDA-MB-435, 31.3 µM (inactive). Moreover, the GI50 with MDA-MB-231 is 23.1 µM (inactive); in the assay with SNB-19 it was 34.9 µM (inactive); in the assay with HCT-15, 31.2 µM; in the assay with PC-3, 32.8 µM (inactive); with NCI-H23, 29.7 µM (inactive); with DU-145, 28 µM (inactive). In addition, the GI50 in the assay with NCI-H226 was 23.8 µM (inactive); in the assay with ACHN it was 24.7 µM (inactive); in the assay on Malme-3M, 22.9 µM (inactive); in the assay on Hs-578T, 41.5 µM (inactive); with HCT-116, 23.9 µM (inactive); with COLO 205, 19.4 µM (inactive). Further, the GI50 with BT-549 is 24.8 µM (inactive); in the assay with U-251, 32.1 µM (inactive).

In the case of `CC(=O)[C@H]1CC[C@H]2[C@@H]3CCC4=CC(=O)CC[C@]4(C)[C@H]3CC[C@]12C` [PROGESTERONE], the GI50 in the assay on K562 is 10.6 µM (inactive); in the assay with T47D, 20.1 µM (inactive); with SR it was > 100 µM (inactive); with UACC-257, 12.9 µM (inactive); in the assay on NCI-H522, 15.6 µM (inactive); in the assay with MDA-MB-435 it was 19.8 µM (inactive). Also, the GI50 in the assay on MDA-MB-231 was 17.2 µM (inactive); in the assay with SNB-19, 24.1 µM (inactive); with HCT-15, 18.9 µM; in the assay on PC-3, 14.4 µM (inactive); with NCI-H23 it was 18.1 µM (inactive); in the assay on DU-145, 28.1 µM (inactive). The GI50 with NCI-H226 was 11.7 µM (inactive); in the assay with ACHN, 26 µM (inactive); in the assay on Malme-3M, 17.3 µM (inactive); in the assay on Hs-578T it was 3.3 µM (inactive); in the assay with HCT-116, 14.5 µM (inactive); with COLO 205, 16 µM (inactive). For the same compound, the GI50 with BT-549 was 16 µM (inactive); in the assay with U-251 it was 17.3 µM (inactive).

Regarding `CC(C)c1[nH]nc(C(N)=O)c1/N=N/N(C)C`, the GI50 with K562 is 79.8 µM (inactive); in the assay on T47D it was 79.6 µM (inactive); with SR, 17.1 µM (inactive); in the assay with UACC-257, > 100 µM (inactive); with NCI-H522, 24.4 µM (inactive); in the assay on MDA-MB-435, 82.2 µM (inactive). Moreover, the GI50 was > 100 µM (inactive) with MDA-MB-231; > 100 µM (inactive) with SNB-19; above 100 µM in the assay on HCT-15; > 100 µM (inactive) in the assay on PC-3; > 100 µM (inactive) in the assay with NCI-H23; 97.9 µM (inactive) in the assay with DU-145. Further, the GI50 was 24.1 µM (inactive) in the assay with NCI-H226; 65 µM (inactive) with ACHN; > 100 µM (inactive) in the assay with Malme-3M; 54.7 µM (inactive) in the assay on Hs-578T; 98.4 µM (inactive) with HCT-116; 67.9 µM (inactive) with COLO 205. Moreover, the GI50 with BT-549 was 34.9 µM (inactive); in the assay on U-251, 49.7 µM (inactive).

As for `O=C(/C=C/c1ccco1)CC(=O)/C=C/c1ccco1`, the GI50 in the assay on K562 is 9.89 µM (inactive); in the assay with T47D it was 8.67 µM (inactive); in the assay on SR it was 4.66 µM (inactive); with UACC-257, 37.8 µM (inactive); with NCI-H522, 7.31 µM (inactive); in the assay on MDA-MB-435, 10.1 µM (inactive). The GI50 in the assay with MDA-MB-231 was > 10 µM (inactive); with SNB-19, 15.5 µM (inactive); in the assay with HCT-15, 12.5 µM; in the assay with PC-3 it was > 10 µM (inactive); in the assay with NCI-H23, 12.2 µM (inactive); with DU-145, > 10 µM (inactive). The GI50 is > 10 µM (inactive) in the assay with NCI-H226; 14.8 µM (inactive) in the assay on ACHN; 13 µM (inactive) with Malme-3M; 16.4 µM (inactive) in the assay with Hs-578T; 11.4 µM (inactive) in the assay with HCT-116; > 10 µM (inactive) in the assay with COLO 205. Further, the GI50 in the assay on BT-549 is 18.2 µM (inactive); in the assay on U-251, 13.7 µM (inactive).

For `Cc1ccc2c(O)cc(-c3ccsc3)nc2n1`, the GI50 in the assay with K562 was 2.9 µM (inactive); with T47D, 5.01 µM (inactive); in the assay with SR it was 0.361 µM (active); with UACC-257, 16.5 µM (inactive); in the assay with NCI-H522 it was 3.67 µM (inactive); in the assay with MDA-MB-435, 0.597 µM (active). For the same compound, the GI50 with MDA-MB-231 was 11.5 µM (inactive); in the assay on SNB-19 it was 6.59 µM (inactive); in the assay on HCT-15, 1.68 µM; in the assay with PC-3, 4.81 µM (inactive); with NCI-H23, 2.77 µM (inactive); with DU-145 it was 9.79 µM (inactive). The GI50 with NCI-H226 was 4.13 µM (inactive); in the assay on ACHN it was 6.98 µM (inactive); in the assay on Malme-3M it was 3.66 µM (inactive); in the assay with Hs-578T, 3.82 µM (inactive); with HCT-116 it was 3.62 µM (inactive); in the assay on COLO 205, 3.21 µM (inactive). Besides, the GI50 is 4.46 µM (inactive) in the assay on BT-549 and 4.65 µM (inactive) in the assay on U-251.

`CC(=O)C(=[N+]=[N-])C(=O)NCC#N`: the GI50 in the assay with K562, with T47D, with SR, in the assay with UACC-257, in the assay on NCI-H522 and in the assay with MDA-MB-435 was > 10 µM (inactive) each time. Further, the GI50 with MDA-MB-231 was > 10 µM (inactive); in the assay on SNB-19, > 10 µM (inactive); in the assay with HCT-15, above 10 µM; in the assay with PC-3, > 10 µM (inactive); with NCI-H23, > 10 µM (inactive); in the assay with DU-145, > 10 µM (inactive). Besides, the GI50 in the assay on NCI-H226, in the assay on ACHN, in the assay on Malme-3M, in the assay on Hs-578T, with HCT-116 and in the assay with COLO 205 was > 10 µM (inactive) throughout. For the same compound, the GI50 in the assay on BT-549 and in the assay on U-251 was > 10 µM (inactive) each time.

As for `ClCc1nn(-c2ccccc2)c(CCl)c1CCl`, the GI50 in the assay with K562 was 2.54 µM (inactive); with T47D it was 3.55 µM (inactive); with SR it was 0.813 µM (active); in the assay on UACC-257 it was 7.76 µM (inactive); in the assay on NCI-H522 it was 4.25 µM (inactive); with MDA-MB-435 it was 2.41 µM (inactive). Moreover, the GI50 with MDA-MB-231 was 4.34 µM (inactive); with SNB-19, 6.73 µM (inactive); with HCT-15, 3.33 µM; in the assay with PC-3, 5.71 µM (inactive); with NCI-H23, 4.46 µM (inactive); in the assay with DU-145 it was 4.68 µM (inactive). In addition, the GI50 is 4.45 µM (inactive) in the assay with NCI-H226; 2.96 µM (inactive) in the assay on ACHN; 2.99 µM (inactive) with Malme-3M; 14.5 µM (inactive) in the assay on Hs-578T; 2.33 µM (inactive) with HCT-116; 3.88 µM (inactive) in the assay on COLO 205. For the same compound, the GI50 was 3.77 µM (inactive) with BT-549 and 2.35 µM (inactive) with U-251.

The record behind these values is ChEMBL document CHEMBL1201862, “PubChem BioAssay data set” (2004).
